Legend:
Assay in all cases: radiometric filter-binding kinase assay
MAPK11 (human) = MAPK11 (human) (UniProt Q15759)
RPS6KA5 KD1 KD2 (human) = RPS6KA5 KD1 KD2 (human) (UniProt O75582)
IGF1R (human) = IGF1R (human) (UniProt P08069)
JAK2 JH1 JH2 (human) = JAK2 JH1 JH2 (human) (UniProt O60674); conditions: compound 1.0 µM
PRKACA (human) = PRKACA (human) (UniProt P17612)
ERBB4 (human) = ERBB4 (human) (UniProt Q15303)
IKBKE (human) = IKBKE (human) (UniProt Q14164)
RPS6KA3 KD1 KD2 (human) = RPS6KA3 KD1 KD2 (human) (UniProt P51812)
PIM1 (human) = PIM1 (human) (UniProt P11309)
STK16 (human) = STK16 (human) (UniProt O75716)
SYK (human) = SYK (human) (UniProt P43405)
GSK3B (human) = GSK3B (human) (UniProt P49841)
PHKG1 (human) = PHKG1 (human) (UniProt Q16816)
PRKCA (human) = PRKCA (human) (UniProt P17252)
MARK1 (human) = MARK1 (human) (UniProt Q9P0L2)
CSNK1D (human) = CSNK1D (human) (UniProt P48730)
MKNK1 (human) = MKNK1 (human) (UniProt Q9BUB5)
CSK (human) = CSK (human) (UniProt P41240)
IRAK1 (human) = IRAK1 (human) (UniProt P51617)
MELK (human) = MELK (human) (UniProt Q14680)
LCK (mouse) = conditions: accession and sequence are those of the human protein
HIPK2 (human) = HIPK2 (human) (UniProt Q9H2X6)
ROCK2 (rat) = conditions: accession and sequence are those of the human protein
DAPK1 (human) = DAPK1 (human) (UniProt P53355)
DYRK2 (human) = DYRK2 (human) (UniProt Q92630)
CLK2 (human) = CLK2 (human) (UniProt P49760)
TAOK1 (human) = TAOK1 (human) (UniProt Q7L7X3)
[1] = system: SGK1 (human), O00141 [S422D]
EPHA2 (human) = EPHA2 (human) (UniProt P29317)
TLK1 (human) = TLK1 (human) (UniProt Q9UKI8)
INSR (human) = INSR (human) (UniProt P06213)
CSNK2A1 (human) = CSNK2A1 (human) (UniProt P68400)
Sequence of CSNK2A1 (human) (P68400 whole entry, looked up): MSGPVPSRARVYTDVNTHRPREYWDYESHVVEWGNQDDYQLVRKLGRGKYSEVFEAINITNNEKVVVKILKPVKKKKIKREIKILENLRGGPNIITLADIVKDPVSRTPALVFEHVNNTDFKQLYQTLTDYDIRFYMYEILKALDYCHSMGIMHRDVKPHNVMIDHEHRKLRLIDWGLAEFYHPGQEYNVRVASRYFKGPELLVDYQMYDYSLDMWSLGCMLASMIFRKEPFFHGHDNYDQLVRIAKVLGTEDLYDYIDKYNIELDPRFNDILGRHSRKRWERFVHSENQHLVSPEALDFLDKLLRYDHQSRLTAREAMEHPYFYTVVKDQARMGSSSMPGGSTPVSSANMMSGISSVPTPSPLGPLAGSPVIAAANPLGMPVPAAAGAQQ

Sequence of IKBKE (human) (Q14164 whole entry, looked up): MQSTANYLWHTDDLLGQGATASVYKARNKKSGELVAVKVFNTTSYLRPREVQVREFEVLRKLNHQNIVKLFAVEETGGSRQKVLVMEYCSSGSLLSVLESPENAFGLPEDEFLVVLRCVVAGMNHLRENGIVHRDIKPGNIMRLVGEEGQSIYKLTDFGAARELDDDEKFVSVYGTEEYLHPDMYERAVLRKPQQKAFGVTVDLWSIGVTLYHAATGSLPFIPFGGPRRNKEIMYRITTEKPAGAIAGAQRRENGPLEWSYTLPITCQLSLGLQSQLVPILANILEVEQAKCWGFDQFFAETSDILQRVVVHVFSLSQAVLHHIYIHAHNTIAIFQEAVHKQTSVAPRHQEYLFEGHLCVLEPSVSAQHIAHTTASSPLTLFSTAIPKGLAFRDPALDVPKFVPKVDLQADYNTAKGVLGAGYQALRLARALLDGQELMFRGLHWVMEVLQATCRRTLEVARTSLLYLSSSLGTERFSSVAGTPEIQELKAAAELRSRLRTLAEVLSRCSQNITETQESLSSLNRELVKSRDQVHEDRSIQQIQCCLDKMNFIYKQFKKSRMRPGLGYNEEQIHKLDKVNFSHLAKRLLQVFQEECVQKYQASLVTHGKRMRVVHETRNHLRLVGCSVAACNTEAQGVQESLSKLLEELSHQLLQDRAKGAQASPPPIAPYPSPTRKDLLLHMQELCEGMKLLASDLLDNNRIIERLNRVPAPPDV
Sequence of INSR (human) (P06213 whole entry, looked up): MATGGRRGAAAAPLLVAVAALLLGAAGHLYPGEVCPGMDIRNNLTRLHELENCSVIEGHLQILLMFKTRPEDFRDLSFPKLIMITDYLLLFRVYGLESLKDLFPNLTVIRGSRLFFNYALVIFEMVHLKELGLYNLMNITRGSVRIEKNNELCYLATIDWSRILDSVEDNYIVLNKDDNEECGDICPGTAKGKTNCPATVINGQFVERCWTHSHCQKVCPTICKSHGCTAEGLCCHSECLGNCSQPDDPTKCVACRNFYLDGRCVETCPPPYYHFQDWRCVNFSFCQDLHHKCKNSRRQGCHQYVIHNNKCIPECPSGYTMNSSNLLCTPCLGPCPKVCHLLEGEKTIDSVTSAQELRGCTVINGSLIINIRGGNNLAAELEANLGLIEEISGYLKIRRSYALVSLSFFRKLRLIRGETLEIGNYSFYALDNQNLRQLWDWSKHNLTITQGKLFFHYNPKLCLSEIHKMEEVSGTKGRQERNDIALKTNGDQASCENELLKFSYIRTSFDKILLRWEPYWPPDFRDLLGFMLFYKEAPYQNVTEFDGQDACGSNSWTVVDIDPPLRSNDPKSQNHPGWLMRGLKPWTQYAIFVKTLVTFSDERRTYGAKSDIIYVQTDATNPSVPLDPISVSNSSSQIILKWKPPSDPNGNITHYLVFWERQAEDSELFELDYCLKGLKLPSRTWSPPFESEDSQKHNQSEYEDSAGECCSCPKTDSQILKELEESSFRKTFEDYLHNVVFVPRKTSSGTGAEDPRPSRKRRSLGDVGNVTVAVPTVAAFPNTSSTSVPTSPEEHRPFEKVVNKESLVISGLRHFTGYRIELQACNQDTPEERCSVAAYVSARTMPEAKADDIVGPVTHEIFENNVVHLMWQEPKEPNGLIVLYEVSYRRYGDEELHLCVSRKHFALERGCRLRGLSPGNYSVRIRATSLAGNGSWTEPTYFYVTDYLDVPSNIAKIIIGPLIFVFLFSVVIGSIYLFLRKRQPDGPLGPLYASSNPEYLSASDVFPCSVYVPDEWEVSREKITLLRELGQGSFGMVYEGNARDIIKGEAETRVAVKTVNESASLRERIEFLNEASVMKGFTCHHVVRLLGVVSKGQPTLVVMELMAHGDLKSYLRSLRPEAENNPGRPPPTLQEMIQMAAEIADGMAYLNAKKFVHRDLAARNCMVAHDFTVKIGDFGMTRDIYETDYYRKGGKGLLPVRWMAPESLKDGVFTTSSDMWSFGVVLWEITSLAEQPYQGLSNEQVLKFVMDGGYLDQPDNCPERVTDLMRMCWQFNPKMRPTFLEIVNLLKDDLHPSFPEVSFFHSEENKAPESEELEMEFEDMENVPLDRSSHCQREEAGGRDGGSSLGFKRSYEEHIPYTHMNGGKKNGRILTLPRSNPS
Sequence of RPS6KA5 KD1 KD2 (human) (O75582 whole entry, looked up): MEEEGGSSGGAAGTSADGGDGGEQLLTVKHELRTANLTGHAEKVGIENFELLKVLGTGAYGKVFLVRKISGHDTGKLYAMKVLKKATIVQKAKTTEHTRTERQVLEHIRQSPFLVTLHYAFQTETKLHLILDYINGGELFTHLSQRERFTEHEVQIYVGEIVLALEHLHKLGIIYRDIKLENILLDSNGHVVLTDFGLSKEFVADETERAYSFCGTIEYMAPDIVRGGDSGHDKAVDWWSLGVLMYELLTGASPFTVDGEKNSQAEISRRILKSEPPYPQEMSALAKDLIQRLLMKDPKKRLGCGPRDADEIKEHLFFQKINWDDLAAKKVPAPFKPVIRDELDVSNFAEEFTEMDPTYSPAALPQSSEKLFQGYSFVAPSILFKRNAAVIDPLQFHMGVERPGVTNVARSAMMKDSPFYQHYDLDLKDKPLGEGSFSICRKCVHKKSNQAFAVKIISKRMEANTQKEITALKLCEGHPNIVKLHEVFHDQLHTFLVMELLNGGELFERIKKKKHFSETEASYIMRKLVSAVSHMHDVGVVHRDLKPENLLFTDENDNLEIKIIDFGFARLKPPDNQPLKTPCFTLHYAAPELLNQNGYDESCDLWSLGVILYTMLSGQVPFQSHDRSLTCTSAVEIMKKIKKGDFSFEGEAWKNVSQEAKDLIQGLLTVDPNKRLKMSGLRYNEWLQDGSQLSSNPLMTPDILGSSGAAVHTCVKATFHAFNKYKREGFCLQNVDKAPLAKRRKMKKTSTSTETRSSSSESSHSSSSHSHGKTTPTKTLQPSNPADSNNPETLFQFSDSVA
Sequence of ERBB4 (human) (Q15303 whole entry, looked up): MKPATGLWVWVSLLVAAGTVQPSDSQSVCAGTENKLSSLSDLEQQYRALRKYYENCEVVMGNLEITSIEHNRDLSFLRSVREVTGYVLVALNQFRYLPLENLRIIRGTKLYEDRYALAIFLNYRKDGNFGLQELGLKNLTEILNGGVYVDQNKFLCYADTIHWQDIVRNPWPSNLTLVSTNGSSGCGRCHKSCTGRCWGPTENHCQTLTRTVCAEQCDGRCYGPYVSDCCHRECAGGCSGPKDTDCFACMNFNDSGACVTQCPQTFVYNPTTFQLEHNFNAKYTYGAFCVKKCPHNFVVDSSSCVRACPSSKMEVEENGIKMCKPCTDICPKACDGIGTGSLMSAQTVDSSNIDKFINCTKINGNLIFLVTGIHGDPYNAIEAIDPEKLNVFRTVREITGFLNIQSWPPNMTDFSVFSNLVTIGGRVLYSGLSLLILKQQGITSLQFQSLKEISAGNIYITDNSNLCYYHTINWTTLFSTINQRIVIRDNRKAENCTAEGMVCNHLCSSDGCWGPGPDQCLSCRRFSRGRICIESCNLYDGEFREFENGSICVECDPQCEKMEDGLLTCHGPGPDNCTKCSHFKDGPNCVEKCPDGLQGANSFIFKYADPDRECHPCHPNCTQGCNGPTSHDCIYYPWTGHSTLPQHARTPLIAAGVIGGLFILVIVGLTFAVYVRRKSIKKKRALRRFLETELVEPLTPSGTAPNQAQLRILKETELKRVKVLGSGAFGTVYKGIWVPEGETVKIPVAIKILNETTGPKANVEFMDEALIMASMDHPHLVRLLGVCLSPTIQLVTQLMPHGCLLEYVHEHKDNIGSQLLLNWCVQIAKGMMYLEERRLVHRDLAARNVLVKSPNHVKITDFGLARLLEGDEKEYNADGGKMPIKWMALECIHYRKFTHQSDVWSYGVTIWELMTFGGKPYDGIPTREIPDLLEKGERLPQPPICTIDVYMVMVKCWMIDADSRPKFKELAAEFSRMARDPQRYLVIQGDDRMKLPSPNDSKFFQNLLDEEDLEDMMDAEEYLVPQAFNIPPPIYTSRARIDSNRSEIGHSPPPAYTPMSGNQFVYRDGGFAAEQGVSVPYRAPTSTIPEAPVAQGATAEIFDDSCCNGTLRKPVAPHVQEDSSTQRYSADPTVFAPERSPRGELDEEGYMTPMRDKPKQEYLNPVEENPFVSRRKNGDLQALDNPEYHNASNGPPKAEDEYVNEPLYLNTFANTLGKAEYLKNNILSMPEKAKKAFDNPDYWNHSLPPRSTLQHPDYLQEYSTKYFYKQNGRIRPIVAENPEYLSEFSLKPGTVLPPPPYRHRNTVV
Sequence of PIM1 (human) (P11309 whole entry, looked up): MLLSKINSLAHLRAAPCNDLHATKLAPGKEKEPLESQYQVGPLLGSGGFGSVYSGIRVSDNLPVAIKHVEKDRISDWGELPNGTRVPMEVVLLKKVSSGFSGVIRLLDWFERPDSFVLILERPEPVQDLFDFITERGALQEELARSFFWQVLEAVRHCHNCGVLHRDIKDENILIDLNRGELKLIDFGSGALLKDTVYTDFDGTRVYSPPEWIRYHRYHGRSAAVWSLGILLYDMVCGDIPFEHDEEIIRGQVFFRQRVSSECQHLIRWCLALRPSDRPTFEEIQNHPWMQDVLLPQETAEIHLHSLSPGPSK

For CNc1nc(Nc2ccc(C(=O)N3CCOCC3)cc2OC)ncc1Cl, the residual activity (MAPK11 (human); compound 1.0 µM) was 57%, the residual activity (MAPK11 (human); compound 10.0 µM) was 93% and the residual activity (RPS6KA5 KD1 KD2 (human); compound 1.0 µM) was 104%. The residual activity (RPS6KA5 KD1 KD2 (human); compound 10.0 µM) was 84%, the residual activity (IGF1R (human); compound 1.0 µM) was 100% and the residual activity (IGF1R (human); compound 10.0 µM) was 51%. The residual activity (JAK2 JH1 JH2 (human)) was 83%, the residual activity (PRKACA (human); compound 1.0 µM) was 85% and the residual activity (PRKACA (human); compound 10.0 µM) was 94%. For the same molecule, the residual activity (ERBB4 (human); compound 1.0 µM) was 89%, the residual activity (ERBB4 (human); compound 10.0 µM) was 94% and the residual activity (IKBKE (human); compound 1.0 µM) was 77%. It also gave a residual activity (IKBKE (human); compound 10.0 µM) of 75%, a residual activity (RPS6KA3 KD1 KD2 (human); compound 1.0 µM) of 92% and a residual activity (RPS6KA3 KD1 KD2 (human); compound 10.0 µM) of 65%. The residual activity (PIM1 (human); compound 1.0 µM) was 96%, the residual activity (PIM1 (human); compound 10.0 µM) was 99% and the residual activity (STK16 (human); compound 1.0 µM) was 100%. For the same molecule, the residual activity (STK16 (human); compound 10.0 µM) was 97%, the residual activity (SYK (human); compound 1.0 µM) was 68% and the residual activity (SYK (human); compound 10.0 µM) was 85%. It also gave a residual activity (GSK3B (human); compound 1.0 µM) of 100%, a residual activity (GSK3B (human); compound 10.0 µM) of 98% and a residual activity (PHKG1 (human); compound 1.0 µM) of 68%. The residual activity (PHKG1 (human); compound 10.0 µM) was 23%, the residual activity (PRKCA (human); compound 1.0 µM) was 66% and the residual activity (PRKCA (human); compound 10.0 µM) was 87%. For the same molecule, the residual activity (MARK1 (human); compound 1.0 µM) was 91%, the residual activity (MARK1 (human); compound 10.0 µM) was 84% and the residual activity (CSNK1D (human); compound 1.0 µM) was 44%. The residual activity (CSNK1D (human); compound 10.0 µM) was 89%, the residual activity (MKNK1 (human); compound 1.0 µM) was 71% and the residual activity (MKNK1 (human); compound 10.0 µM) was 44%. The residual activity (CSK (human); compound 1.0 µM) was 97%, the residual activity (CSK (human); compound 10.0 µM) was 103% and the residual activity (IRAK1 (human); compound 1.0 µM) was 84%. For the same molecule, the residual activity (IRAK1 (human); compound 10.0 µM) was 83%, the residual activity (MELK (human); compound 1.0 µM) was 88% and the residual activity (MELK (human); compound 10.0 µM) was 98%. The residual activity (LCK (mouse); compound 1.0 µM) was 92%, the residual activity (LCK (mouse); compound 10.0 µM) was 95% and the residual activity (HIPK2 (human); compound 1.0 µM) was 77%. It also gave a residual activity (HIPK2 (human); compound 10.0 µM) of 88%, a residual activity (ROCK2 (rat); compound 1.0 µM) of 87% and a residual activity (ROCK2 (rat); compound 10.0 µM) of 71%. For the same molecule, the residual activity (DAPK1 (human); compound 1.0 µM) was 61%, the residual activity (DAPK1 (human); compound 10.0 µM) was 23% and the residual activity (DYRK2 (human); compound 1.0 µM) was 44%. For the same molecule, the residual activity (DYRK2 (human); compound 10.0 µM) was 21%, the residual activity (CLK2 (human); compound 1.0 µM) was 91% and the residual activity (CLK2 (human); compound 10.0 µM) was 76%. For the same molecule, the residual activity (TAOK1 (human); compound 1.0 µM) was 81%, the residual activity (TAOK1 (human); compound 10.0 µM) was 93% and the residual activity ([1]; compound 1.0 µM) was 94%. It also gave a residual activity ([1]; compound 10.0 µM) of 91%, a residual activity (EPHA2 (human); compound 1.0 µM) of 93% and a residual activity (EPHA2 (human); compound 10.0 µM) of 97%. The residual activity (TLK1 (human); compound 1.0 µM) was 61%, the residual activity (TLK1 (human); compound 10.0 µM) was 100% and the residual activity (INSR (human); compound 1.0 µM) was 86%. For the same molecule, the residual activity (INSR (human); compound 10.0 µM) was 50%, the residual activity (CSNK2A1 (human); compound 1.0 µM) was 50% and the residual activity (CSNK2A1 (human); compound 10.0 µM) was 88%.
